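The concentration for 50% growth inhibition is given as GI50. TGI: concentration producing complete growth inhibition.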
Key:
Assay in all cases: NCI anticancer screen, dose series, 384-well format
NCI/ADR-RES ovarian = test system: NCI/ADR-RES ovarian
SR leukemia = test system: SR leukemia
LOX IMVI melanoma = test system: LOX IMVI melanoma
NCI-H522 lung = test system: NCI-H522 lung
HCT-15 colon = test system: HCT-15 colon
MOLT-4 leukemia = test system: MOLT-4 leukemia
HCC-2998 colon = test system: HCC-2998 colon
BT-549 breast = test system: BT-549 breast
HOP-62 NSCLC = test system: HOP-62 NSCLC
SK-MEL-5 melanoma = test system: SK-MEL-5 melanoma
UACC-257 melanoma = test system: UACC-257 melanoma
NCI-H226 lung = test system: NCI-H226 lung
HCT-116 colon = test system: HCT-116 colon
M14 melanoma = test system: M14 melanoma
MDA-MB-435 melanoma = test system: MDA-MB-435 melanoma
T-47D breast = test system: T-47D breast
OVCAR-4 ovarian = test system: OVCAR-4 ovarian
DU-145 prostate = test system: DU-145 prostate
ACHN renal = test system: ACHN renal
SF-539 CNS = test system: SF-539 CNS
RXF 393 renal = test system: RXF 393 renal
CCRF-CEM leukemia = test system: CCRF-CEM leukemia
SK-MEL-28 melanoma = test system: SK-MEL-28 melanoma
SF-295 CNS = test system: SF-295 CNS
U251 glioblastoma = test system: U251 glioblastoma
OVCAR-3 ovarian = test system: OVCAR-3 ovarian
MALME-3M melanoma = test system: MALME-3M melanoma
TK-10 renal = test system: TK-10 renal
NCI-H23 lung = test system: NCI-H23 lung
OVCAR-5 ovarian = test system: OVCAR-5 ovarian
MDA-MB-468 breast = test system: MDA-MB-468 breast
OVCAR-8 ovarian = test system: OVCAR-8 ovarian
SK-OV-3 ovarian = test system: SK-OV-3 ovarian
IGROV1 ovarian = test system: IGROV1 ovarian
MDA-MB-231 breast = test system: MDA-MB-231 breast
UO-31 renal = test system: UO-31 renal
SK-MEL-2 melanoma = test system: SK-MEL-2 melanoma
A549 NSCLC = test system: A549 NSCLC
PC-3 prostate = test system: PC-3 prostate
SF-268 CNS = test system: SF-268 CNS
KM12 colon = test system: KM12 colon
HL-60(TB) leukemia = test system: HL-60(TB) leukemia
UACC-62 melanoma = test system: UACC-62 melanoma
A498 renal = test system: A498 renal
SNB-19 CNS = test system: SNB-19 CNS
MCF7 breast = test system: MCF7 breast
SN12C renal = test system: SN12C renal
SW-620 colon = test system: SW-620 colon
HT29 colon = test system: HT29 colon
CAKI-1 renal = test system: CAKI-1 renal
K-562 leukemia = test system: K-562 leukemia
COLO 205 colon = test system: COLO 205 colon
786-0 renal = test system: 786-0 renal
NCI-H322M lung = test system: NCI-H322M lung
NCI-H460 NSCLC = test system: NCI-H460 NSCLC
HOP-92 NSCLC = test system: HOP-92 NSCLC
RPMI-8226 leukemia = test system: RPMI-8226 leukemia

Cn1ncnc1[C@@H]1c2n[nH]c(=O)c3cc(F)cc(c23)N[C@H]1c1ccc(F)cc1
GI50 (NCI/ADR-RES ovarian): > 100 µM
TGI (NCI/ADR-RES ovarian): > 100 µM
GI50 (SR leukemia): 2.61 µM
TGI (SR leukemia): 11.6 µM
GI50 (LOX IMVI melanoma): > 100 µM
TGI (LOX IMVI melanoma): > 100 µM
GI50 (NCI-H522 lung): 97.7 µM
TGI (NCI-H522 lung): > 100 µM
GI50 (HCT-15 colon): > 100 µM
TGI (HCT-15 colon): > 100 µM
GI50 (MOLT-4 leukemia): 11.4 µM
TGI (MOLT-4 leukemia): 24.6 µM
GI50 (HCC-2998 colon): 43.1 µM
TGI (HCC-2998 colon): > 100 µM
GI50 (BT-549 breast): > 100 µM
TGI (BT-549 breast): > 100 µM
GI50 (HOP-62 NSCLC): > 100 µM
TGI (HOP-62 NSCLC): > 100 µM
GI50 (SK-MEL-5 melanoma): > 100 µM
TGI (SK-MEL-5 melanoma): > 100 µM
GI50 (UACC-257 melanoma): > 100 µM
TGI (UACC-257 melanoma): > 100 µM
GI50 (NCI-H226 lung): > 100 µM
TGI (NCI-H226 lung): > 100 µM
GI50 (HCT-116 colon): 74.9 µM
TGI (HCT-116 colon): > 100 µM
GI50 (M14 melanoma): > 100 µM
TGI (M14 melanoma): > 100 µM
GI50 (MDA-MB-435 melanoma): > 100 µM
TGI (MDA-MB-435 melanoma): > 100 µM
GI50 (T-47D breast): > 100 µM
TGI (T-47D breast): > 100 µM
GI50 (OVCAR-4 ovarian): > 100 µM
TGI (OVCAR-4 ovarian): > 100 µM
GI50 (DU-145 prostate): > 100 µM
TGI (DU-145 prostate): > 100 µM
GI50 (ACHN renal): > 100 µM
TGI (ACHN renal): > 100 µM
GI50 (SF-539 CNS): > 100 µM
TGI (SF-539 CNS): > 100 µM
GI50 (RXF 393 renal): 52.3 µM
TGI (RXF 393 renal): > 100 µM
GI50 (CCRF-CEM leukemia): 40.9 µM
TGI (CCRF-CEM leukemia): > 100 µM
GI50 (SK-MEL-28 melanoma): > 100 µM
TGI (SK-MEL-28 melanoma): > 100 µM
GI50 (SF-295 CNS): > 100 µM
TGI (SF-295 CNS): > 100 µM
GI50 (U251 glioblastoma): > 100 µM
TGI (U251 glioblastoma): > 100 µM
GI50 (OVCAR-3 ovarian): > 100 µM
TGI (OVCAR-3 ovarian): > 100 µM
GI50 (MALME-3M melanoma): > 100 µM
TGI (MALME-3M melanoma): > 100 µM
GI50 (TK-10 renal): > 100 µM
TGI (TK-10 renal): > 100 µM
GI50 (NCI-H23 lung): > 100 µM
TGI (NCI-H23 lung): > 100 µM
GI50 (OVCAR-5 ovarian): > 100 µM
TGI (OVCAR-5 ovarian): > 100 µM
GI50 (MDA-MB-468 breast): 57.1 µM
TGI (MDA-MB-468 breast): > 100 µM
GI50 (OVCAR-8 ovarian): > 100 µM
TGI (OVCAR-8 ovarian): > 100 µM
GI50 (SK-OV-3 ovarian): > 100 µM
TGI (SK-OV-3 ovarian): > 100 µM
GI50 (IGROV1 ovarian): > 100 µM
TGI (IGROV1 ovarian): > 100 µM
GI50 (MDA-MB-231 breast): > 100 µM
TGI (MDA-MB-231 breast): > 100 µM
GI50 (UO-31 renal): > 100 µM
TGI (UO-31 renal): > 100 µM
GI50 (SK-MEL-2 melanoma): > 100 µM
TGI (SK-MEL-2 melanoma): > 100 µM
GI50 (A549 NSCLC): > 100 µM
TGI (A549 NSCLC): > 100 µM
GI50 (PC-3 prostate): > 100 µM
TGI (PC-3 prostate): > 100 µM
GI50 (SF-268 CNS): > 100 µM
TGI (SF-268 CNS): > 100 µM
GI50 (KM12 colon): > 100 µM
TGI (KM12 colon): > 100 µM
GI50 (HL-60(TB) leukemia): > 100 µM
TGI (HL-60(TB) leukemia): > 100 µM
GI50 (UACC-62 melanoma): > 100 µM
TGI (UACC-62 melanoma): > 100 µM
GI50 (A498 renal): > 100 µM
TGI (A498 renal): > 100 µM
GI50 (SNB-19 CNS): > 100 µM
TGI (SNB-19 CNS): > 100 µM
GI50 (MCF7 breast): > 100 µM
TGI (MCF7 breast): > 100 µM
GI50 (SN12C renal): > 100 µM
TGI (SN12C renal): > 100 µM
GI50 (SW-620 colon): 70.9 µM
TGI (SW-620 colon): > 100 µM
GI50 (HT29 colon): > 100 µM
TGI (HT29 colon): > 100 µM
GI50 (CAKI-1 renal): > 100 µM
TGI (CAKI-1 renal): > 100 µM
GI50 (K-562 leukemia): > 100 µM
TGI (K-562 leukemia): > 100 µM
GI50 (COLO 205 colon): > 100 µM
TGI (COLO 205 colon): > 100 µM
GI50 ([…]-0 renal): > 100 µM
TGI (786-0 renal): > 100 µM
GI50 (NCI-H322M lung): > 100 µM
TGI (NCI-H322M lung): > 100 µM
GI50 (NCI-H460 NSCLC): 17.3 µM
TGI (NCI-H460 NSCLC): > 100 µM
GI50 (HOP-92 NSCLC): > 100 µM
TGI (HOP-92 NSCLC): > 100 µM
GI50 (RPMI-8226 leukemia): 78.9 µM
TGI (RPMI-8226 leukemia): > 100 µM

Reference: PubChem BioAssay (NCI)
